According to US9328138B2 (priority 2011, dated 2016):

Legend:
[1] = target: HCV NS3 protease genotype 3a (3A-1) (Hepatitis C virus genotype 3a, UniProt Q81258); assay: HCV NS3 protease time-resolved fluorescence (TRF) assay, genotype 3a; format: biochemical; conditions: Ki 3a
Method in brief: (§1)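 Inhibitor titrations are mixed with NS3/NS4A in pH 7.5 HEPES buffer containing 10 mM DTT and 15% glycerol for 10 min before substrate (25 nM final) is added. After 6 h at room temperature, delayed fluorescence is read and fitted to a four-parameter curve for IC50.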

[2] = target: T1, HCV genotype 1b (BK) NS3 modified enzyme with a R155K mutation (Hepatitis C virus genotype 1b, UniProt P26663, R1181K); assay: HCV NS3 protease time-resolved fluorescence (TRF) assay, genotype 1b R155K; format: biochemical; conditions: Ki 1b R155K, genotype 1b (BK) NS3 R155K; single value
T1 construct: HCV genotype 1b (BK) NS3 modified enzyme
Method in brief: as §1

## C=C[C@@H]1C[C@]1(NC(=O)[C@@H]1C[C@@H]2CN1C(=O)[C@H](C(C)(C)C)NC(=O)O[C@@H]1C[C@H]1CCCCCc1c(nc3cc(C(F)(F)F)ccc3c1OCCN1CCOCC1)O2)C(=O)NS(=O)(=O)C1(C)CC1 [Example 129, (1aR,5S,8S,10R,22aR)-5-tert-butyl-N-[(1R,2S)-2-ethenyl-1-{[(1-methylcyclopropyl)sulfonyl]carbamoyl}cyclopropyl]-17-[2-(morpholin-4-yl)ethoxy]-3,6-dioxo-14-(trifluoromethyl)-1,1a,3,4,5,6,9,10,18,19,20,21,22,22a-tetradecahydro-8H-7,10-methanocyclopropa[18,19][1,10,3,6] dioxadiazacyclononadecino[11,12-b] quinoline-8-carboxamide]
[1]
  Ki: 8.7 nM
[2]
  Ki: 0.51 nM

## C=C[C@@H]1C[C@]1(NC(=O)[C@@H]1C[C@@H]2CN1C(=O)[C@H](C(C)(C)C)NC(=O)O[C@@H]1C[C@H]1CCCCCc1c(nc3ccccc3c1OCCN(C)c1ccccc1)O2)C(=O)NS(=O)(=O)C1(C)CC1 [Example 130, (1aR,5S,8S,10R,22aR)-5-tert-butyl-N-[(1R,2S)-2-ethenyl-1-{[(1-methylcyclopropyl)sulfonyl]carbamoyl}cyclopropyl]-17-{2-[methyl(phenyl)amino]ethoxy}-3,6-dioxo-1,1a,3,4,5,6,9,10,18,19, cyclopropa[18,19][1,10,3,6] dioxadiazacyclononadecino [11,12-b]quinoline-8-carboxamide]
[1]
  Ki: 18 nM
[2]
  Ki: 2.2 nM

## C=C[C@@H]1C[C@]1(NC(=O)[C@@H]1C[C@@H]2CN1C(=O)[C@H](C(C)(C)C)NC(=O)O[C@@H]1C[C@H]1CCCCCc1c(nc3ccccc3c1OCCCN1CCN(C)CC1)O2)C(=O)NS(=O)(=O)C1(C)CC1 [Example 131, (1aR,5S,8S,10R,22aR)-5-tert-butyl-N-[(1R,2S)-2-ethenyl-1-{[(1-methylcyclopropyl)sulfonyl]carbamoyl}cyclopropyl]-17-[3-(4-methylpiperazin-1-yl)propoxy]-3,6-dioxo-1,1a,3,4,5,6,9,10,18,19,20,21,22,22a-tetradecahydro-8H-7,10-methanocyclopropa[8,19][1,10,3,6]dioxadiazacyclononadecino[11,12-b]quinoline-8-carboxamide]
[1]
  Ki: 1.3 nM
[2]
  Ki: 0.11 nM

## C=C[C@@H]1C[C@]1(NC(=O)[C@@H]1C[C@@H]2CN1C(=O)[C@H](C(C)(C)C)NC(=O)O[C@@H]1C[C@H]1CCCCCc1c(nc3cc(C(C)C)ccc3c1OCCN1CCOCC1)O2)C(=O)NS(=O)(=O)C1(C)CC1 [Example 132, (1aR,5S,8S,10R,22aR)-5-tert-butyl-N-[(1R,2S)-2-ethenyl-1-{[(1-methylcyclopropyl)sulfonyl]carbamoyl}cyclopropyl]-17-[2-(morpholin-4-yl)ethoxy]-3,6-dioxo-14-(propan-2-yl)-1,1a,3,4,5,6,9,10,18,19,20,21,22,22a-tetradecahydro-8H-7,10-methanocyclopropa[18,19][1,10,3,6]dioxadiazacyclononadecino[11,12-b]quinoline-8-carboxamide]
[1]
  Ki: 6.8 nM
[2]
  Ki: 0.39 nM

## C=C[C@@H]1C[C@]1(NC(=O)[C@@H]1C[C@@H]2CN1C(=O)[C@H](C(C)(C)C)NC(=O)O[C@@H]1C[C@H]1CCCCCc1c(nc3ccccc3c1OCCCN1CCC1)O2)C(=O)NS(=O)(=O)C1(C)CC1 [Example 133, (1aR,5S,8S,10R,22aR)-17-[3-(azetidin-1-yl)propoxy]-5-tert-butyl-N-[(1R,2S)-2-ethenyl-1-{[(1-methylcyclopropyl)sulfonyl]carbamoyl}cyclopropyl]-3,6-dioxo-1,1a,3,4,5,6,9,10,18,19,20,21,22,22a-tetradecahydro-8H-7,10-methanocyclopropa[18,19][1,10,3,6]dioxadiazacyclononadecino[11,12-b]quinoline-8-carboxamide]
[1]
  Ki: 1 nM
[2]
  Ki: 0.11 nM

## C=C[C@@H]1C[C@]1(NC(=O)[C@@H]1C[C@@H]2CN1C(=O)[C@H](C(C)(C)C)NC(=O)O[C@@H]1C[C@H]1CCCCCc1c(nc3ccccc3c1OCCN1CCCCC1)O2)C(=O)NS(=O)(=O)C1(C)CC1 [Example 134, (1aR,5S,8S,10R,22aR)-5-tert-butyl-N-[(1R,2S)-2-ethenyl-1-{[(1-methylcyclopropyl)sulfonyl]carbamoyl}cyclopropyl]-3,6-dioxo-17-[2-(piperidin-1-yl)ethoxy]-1,1a,3,4,5,6,9,10,18,19,20,21,22,22a-tetradeca hydro-8H-7,10-methano cyclopropa[18,19][1,10,3,6]dioxadiazacyclo nonadecino[11,12-b]quinoline-8-carboxamide]
[1]
  Ki: 6.1 nM
[2]
  Ki: 0.56 nM

## C=C[C@@H]1C[C@]1(NC(=O)[C@@H]1C[C@@H]2CN1C(=O)[C@H](C(C)(C)C)NC(=O)O[C@@H]1C[C@H]1CCCCCc1c(nc3ccccc3c1OCCN1CCCC1)O2)C(=O)NS(=O)(=O)C1(C)CC1 [Example 135]
[1]
  Ki: 1.8 nM
[2]
  Ki: 0.2 nM

## C=C[C@@H]1C[C@]1(NC(=O)[C@@H]1C[C@@H]2CN1C(=O)[C@H](C(C)(C)C)NC(=O)O[C@@H]1C[C@H]1CCCCCc1c(nc3ccccc3c1OCCN1CC3(CCC3)C1)O2)C(=O)NS(=O)(=O)C1(C)CC1 [Example 136, (1aR,5S,8S,10R,22aR)-17-[2-(2-azaspiro[3.3]hept-2-yl)ethoxy]-5-tert-butyl-N-[(1R,2S)-2-ethenyl-1-{[(1-methylcyclopropyl)sulfonyl]carbamoyl}cyclopropyl]-3,6-dioxo-1,1a,3,4,5,6,9,10,18,19,20,21,22,22a-tetradecahydro-8H-7,10-methanocyclopropa[18,19][1,10,3,6] dioxadiazacyclononadecino [11,12-b]quinoline-8-carboxamide]
[1]
  Ki: 5.1 nM
[2]
  Ki: 0.58 nM

## C=C[C@@H]1C[C@]1(NC(=O)[C@@H]1C[C@@H]2CN1C(=O)[C@H](C(C)(C)C)NC(=O)O[C@@H]1C[C@H]1CCCCCc1c(nc3ccccc3c1OC[C@H]1CCN(C(=O)OC(C)(C)C)C1)O2)C(=O)NS(=O)(=O)C1(C)CC1 [Example 137, tert-butyl (3S)-3-({[(1aR,5S,8S,10R,22aR)-5-tert-butyl-8-{[(1R,2S)-2-ethenyl-1-{[(1-methylcyclopropyl)sulfonyl]carbamoyl}cyclopropyl]carbamoyl}-3,6-dioxo-1,1a,3,4,5,6,9,10,18,19,20,21,22,22a-tetradecahydro-8H-7,10-methanocyclopropa[18,19][1,10,3,6]dioxadiazacyclononadecino[11,12-b]quinolin-17-yl]oxy}methyl)pyrrolidine-1-carboxylate]
[1]
  Ki: 1.2 nM
[2]
  Ki: 0.14 nM

## C=C[C@@H]1C[C@]1(NC(=O)[C@@H]1C[C@@H]2CN1C(=O)[C@H](C(C)(C)C)NC(=O)O[C@@H]1C[C@H]1CCCCCc1c(nc3ccccc3c1OC[C@@H]1CCN(C(=O)OC(C)(C)C)C1)O2)C(=O)NS(=O)(=O)C1(C)CC1 [Example 138, tert-butyl (3R)-3-({[(1aR,5S,8S,10R, 22aR)-5-tert-butyl-8-{[(1R,2S)-2-ethenyl-1-{[(1-methylcyclopropyl)sulfonyl]carbamoyl}cyclopropyl]carbamoyl}-3,6-dioxo-1,1a,3,4,5,6,9,10,18,19,20, 21,22,22a-tetradeca hydro-8H-7,10-methanocyclopropa [18,19][1,10,3,6]dioxadiazacyclononadecino[11,12-b]quinolin-17-yl]oxy}methyl)pyrrolidine-1-carboxylate]
[1]
  Ki: 7 nM
[2]
  Ki: 0.63 nM
